Results: patent US20210246157A1, “CAMPTOTHECIN DERIVATIVES AND PREPARATION METHODS AND APPLICATIONS THEREOF” (priority 2018, published 2021)
In brackets after ≈: the same amount, converted by molar mass. Counter-ions that a name gives are not always drawn. Like-named read-outs stand apart in the source and are kept apart here.

Columns and labels:
[1] = Solubility test, equilibrium method, UV-visible spectrophotometry; type: physicochemical; details: for solubility: thermodynamic from solid
Method: The solubility test is carried out by equilibrium method. […] An appropriate amount of the compound is weighed and dissolved in 1 mL of methanol solution to prepare a control solution with a certain concentration (C0). The concentration of test solution is calculated according to the following formula: Cx=(Ax/A0)C0, wherein Cx is concentration of test solution, Ax is absorbance of test solution, C0 is concentration of control solution, and A0 is absorbance of control solution.

[2] = Multi-dose in vivo antitumor activity study, mouse weight (Example 20); design: species or system mice; details: CPT-11 group 10 mg/kg, caudal vein once every 2 days
Method: The drugs are administered through the caudal veins of mice once every 2 days for a total of 7 times.
At the end of the treatment cycle, the orbital venous blood of the mice is collected for later blood routine test, the mice are killed by cervical dislocation method, and tumors are removed immediately and photographed. From day 0, the mice in each group are weighed every three days, and the weights are recorded. The weight average value of each group is calculated, and mouse weight variation curve is drawn according to statistical data. At the end of the treatment cycle, tumors are removed from anesthetized mice immediately and weighted, and the tumor weight of each group is recorded. The tumor inhibition rate (%) is calculated according to the following formula: […]

SW-480 = assay: Cytotoxicity test (MTT, 72 h); details: Homo sapiens, SW480, 72 h, read-out: 50% Inhibiting Concentration value (IC50)
Method: (§1) Cells at logarithmic growth period are inoculated in a 96-well plate overnight, then drugs with a certain gradient concentrations are added, and incubation is carried out in a cell culture chamber (5% CO2, 37° C.) for 72 h.

HT-29 = assay: Cytotoxicity test (MTT, 72 h); details: Homo sapiens, HT-29, 72 h, read-out: 50% Inhibiting Concentration value (IC50)
Method: as §1

HCT-116 = assay: Cytotoxicity test (MTT, 72 h); details: Homo sapiens, HCT-116, 72 h, read-out: 50% Inhibiting Concentration value (IC50)
Method: (§2) In order to investigate the antitumor activities of the compounds, a variety of tumor cell lines for test are selected. Cells at logarithmic growth period are inoculated in a 96-well plate overnight, then drugs with a certain gradient concentrations are added, and incubation is carried out in a cell culture chamber (5% CO2, 37° C.) for 72 h.

A549 = assay: Cytotoxicity test (MTT, 72 h); details: Homo sapiens, A549, 72 h, read-out: 50% Inhibiting Concentration value (IC50)
Method: as §2

H1975 = assay: Cytotoxicity test (MTT, 72 h); details: Homo sapiens, NCI-H1975, 72 h, read-out: 50% Inhibiting Concentration value (IC50)
Method: as §2

HepG2 = assay: Cytotoxicity test (MTT, 72 h); details: Homo sapiens, HepG2, 72 h, read-out: 50% Inhibiting Concentration value (IC50)
Method: as §2

BGC-823 = assay: Cytotoxicity test (MTT, 72 h); details: Homo sapiens, BGC-823, 72 h, read-out: 50% Inhibiting Concentration value (IC50)
Method: as §2

ECA-109 = assay: Cytotoxicity test (MTT, 72 h); details: Homo sapiens, ECa-109, 72 h, read-out: 50% Inhibiting Concentration value (IC50)
Method: as §2

K562 = assay: Cytotoxicity test (MTT, 72 h); details: Homo sapiens, K562, 72 h, read-out: 50% Inhibiting Concentration value (IC50)
Method: as §2

PC3 = assay: Cytotoxicity test (MTT, 72 h); details: Homo sapiens, PC-3, 72 h, read-out: 50% Inhibiting Concentration value (IC50)
Method: as §2

143B = assay: Cytotoxicity test (MTT, 72 h); details: Homo sapiens, read-out: 50% Inhibiting Concentration value (IC50)
Method: as §2

MDA-MB-231 = assay: Cytotoxicity test (MTT, 72 h); details: Homo sapiens, MDA-MB-231, 72 h, read-out: 50% Inhibiting Concentration value (IC50)
Method: as §2

Hela = assay: Cytotoxicity test (MTT, 72 h); details: Homo sapiens, read-out: 50% Inhibiting Concentration value (IC50)
Method: as §2

TPC-1 = assay: Cytotoxicity test (MTT, 72 h); details: Homo sapiens, TPC1, 72 h, read-out: 50% Inhibiting Concentration value (IC50)
Method: as §1

SKOV-3 = assay: Cytotoxicity test (MTT, 72 h); details: Homo sapiens, SK-OV-3, 72 h, read-out: 50% Inhibiting Concentration value (IC50)
Method: as §1

PANC-1 = assay: Cytotoxicity test (MTT, 72 h); details: Homo sapiens, PANC-1, 72 h, read-out: 50% Inhibiting Concentration value (IC50)
Method: as §1

tumor = details: Santi et al., J Med Chem. 2014; cited from earlier work
[3] = common drug solvents and water; Santi et al.; cited from earlier work

## CCc1c2c(nc3ccc(OC(=O)N4CCC(N5CCCCC5)CC4)cc13)-c1cc3c(c(=O)n1C2)COC(=O)[C@]3(O)CC [CPT-11, Irinotecan hydrochloride, reference compound]
[1]; 0.1% aqueous solution of Tween-80, aqueous with cosolvent or surfactant or cyclodextrin, read-out: Solubility in 0.1% Tween-80
  solubility: 0.597 mg/mL
[1]; aqueous buffer, PBS pH 7.4, read-out: Solubility in PBS (pH = 7.4)
  solubility: 0.843 mg/mL
[1]; normal saline, saline or isotonic, read-out: Solubility in Normal Saline (NS)
  solubility: 1.22 mg/mL
[1]; water, read-out: Solubility in Water
  solubility: 6.3 mg/mL
[2]; day 0
  Mouse Weight: 16.53 g
[2]; day 3
  Mouse Weight: 15.87 g
[2]; day 6
  Mouse Weight: 16.10 g
[2]; day 9
  Mouse Weight: 16.96 g
[2]; day 12
  Mouse Weight: 16.53 g
[2]; day 15
  Mouse Weight: 16.86 g
[2]; day 18
  Mouse Weight: 16.27 g
[2]; day 21
  Mouse Weight: 17.28 g
SW-480
  IC50: 7.38 µM
HT-29
  IC50: 12.8 µM
HCT-116
  IC50: 14.1 µM
A549
  IC50: 35 µM
H1975
  IC50: 29.1 µM
HepG2
  IC50: 22.1 µM
BGC-823
  IC50: 9.15 µM
ECA-109
  IC50: 11.7 µM
K562
  IC50: 10.7 µM
PC3
  IC50: 25.1 µM
143B
  IC50: 20.3 µM
MDA-MB-231
  IC50: 14.4 µM
Hela
  IC50: 12 µM
TPC-1
  IC50: 25 µM
SKOV-3
  IC50: 16.5 µM
PANC-1
  IC50: 22 µM

## CCc1c2c(nc3ccc(O)cc13)-c1cc3c(c(=O)n1C2)COC(=O)[C@]3(O)CC [SN38, reference compound]
[1]; 0.1% aqueous solution of Tween-80
  Solubility in 0.1% Tween-80: 0.0774 mg/mL (≈ 197 µM)
[1]; PBS pH 7.4
  Solubility in PBS (pH = 7.4): 17.6 μg/mL
[1]; normal saline
  Solubility in Normal Saline (NS): 0.0075 mg/mL (≈ 19.1 µM)
[1]; summary of Table 1
  solubility in water, normal saline, PBS (PH 7.4) and 0.1% aqueous solution of Tween-80 (in words): very low solubility
[1]; water
  Solubility in Water: 0.0077 mg/mL (≈ 19.6 µM)
tumor
  in vitro antitumor activity relative to irinotecan: 100-1000 times
[3]
  solubility (in words): almost insoluble in common drug solvents and water
